In the CheMixHub viscosity set:

Test: xn = mol fraction of the nth substance listed

N#C[S-].NC(N)=[NH2+] + CC(N)=O
viscosity [mPa·s], 100 kPa
Conditions | 293.15 K | 298.13 K | 303.15 K | 308.15 K | 313.15 K | 318.15 K | 323.15 K
x1 = 0.2 | – | – | 16.53 | 13.36 | 10.98 | 9.17 | 7.72
x1 = 0.25 | 25.56 | 21.49 | 17.47 | 14.41 | 12.05 | 10.31 | 8.95
x1 = 0.3333 | 25.06 | 21.05 | 17.16 | 14.05 | 11.66 | 9.89 | 8.48

Cc1cccc(O)c1 + Cc1ccccc1
308.15 K, 101 kPa
Conditions | viscosity [mPa·s]
x1 = 0.0892 | 0.5693
x1 = 0.198 | 0.7009
x1 = 0.3227 | 0.9138
x1 = 0.4371 | 1.215
x1 = 0.5644 | 1.71
x1 = 0.6801 | 2.44
x1 = 0.7905 | 3.416
x1 = 0.8866 | 4.871
x1 = 0.9596 | 6.414

O=Cc1ccco1 + CCCC[P+](C)(CCCC)CCCC.COS(=O)(=O)[O-]
viscosity [mPa·s], 100 kPa
Conditions | 293.15 K | 298.15 K | 303.15 K | 308.15 K | 313.15 K | 318.15 K | 323.15 K
x2 = 0.062 | 2.53 | – | – | – | – | – | –
x2 = 0.1 | 8.96 | 3.49 | 3.13 | 2.99 | 2.64 | 2.46 | –
x2 = 0.142 | – | – | 4.13 | 3.99 | 3.64 | 3.46 | –
x2 = 0.191 | 41.29 | – | – | 5.55 | 5.56 | 4.32 | 4.01
x2 = 0.249 | 64.53 | 30.58 | – | – | – | – | –
x2 = 0.317 | – | 46.54 | 24.83 | – | 8.79 | – | 6.01
x2 = 0.399 | – | 72.22 | 39.81 | – | – | 9.92 | –
x2 = 0.499 | – | – | – | 33.52 | – | – | –
x2 = 0.624 | 270.6 | – | – | 58.28 | – | 32.22 | 26.66
x2 = 0.732 | 396.3 | 265.6 | – | 133.5 | – | 81.46 | 73.46
x2 = 0.823 | 501.6 | 350.8 | 255.5 | – | – | 116.5 | 99.45
x2 = 0.863 | 555 | 392.6 | 287.1 | – | – | – | –
x2 = 0.91 | 614.7 | 435.6 | 319.2 | – | – | – | –
x2 = 0.951 | 664.4 | 475.8 | 351.2 | 265.8 | – | 158.5 | –

CCCCC(CC)COP(=O)(O)OCC(CC)CCCC (stereo not given) + CCO
303.15 K, 101 kPa
Conditions | viscosity [mPa·s]
x1 = 0.0484 | 1.909
x1 = 0.086 | 2.633
x1 = 0.1497 | 3.874
x1 = 0.246 | 5.98
x1 = 0.3456 | 8.285
x1 = 0.4132 | 9.819
x1 = 0.5228 | 12.07
x1 = 0.6182 | 13.82
x1 = 0.7125 | 15.38
x1 = 0.8312 | 17.13
x1 = 0.9224 | 18.43
